Reference: PubChem BioAssay (NCI)
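Compound exposure: 48 hours, 5 concentrations, 96-well plates. GI50 marks 50% less growth. TGI denotes the concentration required for complete inhibition of growth.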

Legend:
Experiment in all cases: NCI tumour cell line growth inhibition, 48 h
HT29 colon = test system: HT29 colon
SW-620 colon = test system: SW-620 colon
EKVX NSCLC = test system: EKVX NSCLC
SK-MEL-2 melanoma = test system: SK-MEL-2 melanoma
UACC-257 melanoma = test system: UACC-257 melanoma
MOLT-4 leukemia = test system: MOLT-4 leukemia
U251 CNS = test system: U251 CNS
IGROV1 ovarian = test system: IGROV1 ovarian
ACHN renal = test system: ACHN renal
PC-3 prostate = test system: PC-3 prostate
K-562 leukemia = test system: K-562 leukemia
MALME-3M melanoma = test system: MALME-3M melanoma
HOP-92 NSCLC = test system: HOP-92 NSCLC
HCT-15 colon = test system: HCT-15 colon
SN12C renal = test system: SN12C renal
RXF 393 renal = test system: RXF 393 renal
MDA-MB-231 breast = test system: MDA-MB-231 breast
BT-549 breast = test system: BT-549 breast
A498 renal = test system: A498 renal
UACC-62 melanoma = test system: UACC-62 melanoma
SNB-19 CNS = test system: SNB-19 CNS
SF-539 CNS = test system: SF-539 CNS
SF-295 CNS = test system: SF-295 CNS
HCT-116 colon = test system: HCT-116 colon
SF-268 CNS = test system: SF-268 CNS
HS 578T breast = test system: HS 578T breast
CAKI-1 renal = test system: CAKI-1 renal
KM12 colon = test system: KM12 colon
COLO 205 colon = test system: COLO 205 colon
OVCAR-5 ovarian = test system: OVCAR-5 ovarian
OVCAR-4 ovarian = test system: OVCAR-4 ovarian
HL-60(TB) leukemia = test system: HL-60(TB) leukemia
HOP-62 NSCLC = test system: HOP-62 NSCLC
NCI-H460 lung = test system: NCI-H460 lung
TK-10 renal = test system: TK-10 renal
SK-MEL-5 melanoma = test system: SK-MEL-5 melanoma
CCRF-CEM leukemia = test system: CCRF-CEM leukemia
OVCAR-8 ovarian = test system: OVCAR-8 ovarian
SR leukemia = test system: SR leukemia
M14 melanoma = test system: M14 melanoma
SNB-75 CNS = test system: SNB-75 CNS
NCI-H23 lung = test system: NCI-H23 lung
LOX IMVI melanoma = test system: LOX IMVI melanoma
786-0 renal = test system: 786-0 renal
DU-145 prostate = test system: DU-145 prostate
UO-31 renal = test system: UO-31 renal
RPMI-8226 leukemia = test system: RPMI-8226 leukemia
MCF7 breast = test system: MCF7 breast
SK-MEL-28 melanoma = test system: SK-MEL-28 melanoma
SK-OV-3 ovarian = test system: SK-OV-3 ovarian
HCC-2998 colon = test system: HCC-2998 colon
MDA-MB-435 = test system: MDA-MB-435
A549 NSCLC = test system: A549 NSCLC
NCI-H522 lung = test system: NCI-H522 lung
NCI-H226 lung = test system: NCI-H226 lung
OVCAR-3 ovarian = test system: OVCAR-3 ovarian
NCI/ADR-RES ovarian = test system: NCI/ADR-RES ovarian
T-47D breast = test system: T-47D breast

Structure (SMILES): C/C1=C/C(=O)O[C@@H]2C[C@@H](CC[C@H](C)/C=C\C=C\CC1)O[C@@](OCCc1ccccc1)([C@@H]1CSC(=O)N1)C2
- GI50 (HT29 colon): 79.3 nM
- TGI (HT29 colon): > 15000 nM
- GI50 (SW-620 colon): 7040 nM
- TGI (SW-620 colon): > 17500 nM
- GI50 (EKVX NSCLC): 106 nM
- TGI (EKVX NSCLC): > 17500 nM
- GI50 (SK-MEL-2 melanoma): 917 nM
- TGI (SK-MEL-2 melanoma): > 13800 nM
- GI50 (UACC-257 melanoma): 175 nM
- TGI (UACC-257 melanoma): 17300 nM
- GI50 (MOLT-4 leukemia): > 5200 nM
- TGI (MOLT-4 leukemia): > 17500 nM
- GI50 (U251 CNS): 189 nM
- TGI (U251 CNS): > 17500 nM
- GI50 (IGROV1 ovarian): 27.5 nM
- TGI (IGROV1 ovarian): 74 nM
- GI50 (ACHN renal): 50.1 nM
- TGI (ACHN renal): > 17500 nM
- GI50 (PC-3 prostate): 75.4 nM
- TGI (PC-3 prostate): > 17500 nM
- GI50 (K-562 leukemia): 954 nM
- TGI (K-562 leukemia): > 17500 nM
- GI50 (MALME-3M melanoma): 69.4 nM
- TGI (MALME-3M melanoma): 943 nM
- GI50 (HOP-92 NSCLC): 11.9 nM
- TGI (HOP-92 NSCLC): 66.1 nM
- GI50 (HCT-15 colon): 90 nM
- TGI (HCT-15 colon): > 17500 nM
- GI50 (SN12C renal): 78.7 nM
- TGI (SN12C renal): > 17500 nM
- GI50 (RXF 393 renal): 36.3 nM
- TGI (RXF 393 renal): 158 nM
- GI50 (MDA-MB-231 breast): 94.9 nM
- TGI (MDA-MB-231 breast): > 17500 nM
- GI50 (BT-549 breast): 40.4 nM
- TGI (BT-549 breast): 113 nM
- GI50 (A498 renal): 31.3 nM
- TGI (A498 renal): 133 nM
- GI50 (UACC-62 melanoma): 104 nM
- TGI (UACC-62 melanoma): > 17500 nM
- GI50 (SNB-19 CNS): 120 nM
- TGI (SNB-19 CNS): > 17500 nM
- GI50 (SF-539 CNS): 54.3 nM
- TGI (SF-539 CNS): > 17500 nM
- GI50 (SF-295 CNS): 38.3 nM
- TGI (SF-295 CNS): > 4550 nM
- GI50 (HCT-116 colon): 225 nM
- TGI (HCT-116 colon): > 17500 nM
- GI50 (SF-268 CNS): 78.4 nM
- TGI (SF-268 CNS): 377 nM
- GI50 (HS 578T breast): 28 nM
- TGI (HS 578T breast): 97.3 nM
- GI50 (CAKI-1 renal): 22.2 nM
- TGI (CAKI-1 renal): 81.1 nM
- GI50 (KM12 colon): 6190 nM
- TGI (KM12 colon): > 17500 nM
- GI50 (COLO 205 colon): 84.5 nM
- TGI (COLO 205 colon): 401 nM
- GI50 (OVCAR-5 ovarian): 55.4 nM
- TGI (OVCAR-5 ovarian): > 17500 nM
- GI50 (OVCAR-4 ovarian): 225 nM
- TGI (OVCAR-4 ovarian): > 5440 nM
- GI50 (HL-60(TB) leukemia): 1310 nM
- TGI (HL-60(TB) leukemia): > 17500 nM
- GI50 (HOP-62 NSCLC): 77.7 nM
- TGI (HOP-62 NSCLC): > 17500 nM
- GI50 (NCI-H460 lung): 270 nM
- TGI (NCI-H460 lung): > 17500 nM
- GI50 (TK-10 renal): 89.5 nM
- TGI (TK-10 renal): 287 nM
- GI50 (SK-MEL-5 melanoma): 226 nM
- TGI (SK-MEL-5 melanoma): > 6420 nM
- GI50 (CCRF-CEM leukemia): 282 nM
- TGI (CCRF-CEM leukemia): > 17500 nM
- GI50 (OVCAR-8 ovarian): 1110 nM
- TGI (OVCAR-8 ovarian): > 17500 nM
- GI50 (SR leukemia): 379 nM
- TGI (SR leukemia): > 17500 nM
- GI50 (M14 melanoma): 204 nM
- TGI (M14 melanoma): > 17500 nM
- GI50 (SNB-75 CNS): 22 nM
- TGI (SNB-75 CNS): 59.7 nM
- GI50 (NCI-H23 lung): 142 nM
- TGI (NCI-H23 lung): > 17500 nM
- GI50 (LOX IMVI melanoma): 31.6 nM
- GI50 (786-0 renal): 107 nM
- TGI (786-0 renal): > 17500 nM
- GI50 (DU-145 prostate): 282 nM
- TGI (DU-145 prostate): > 17500 nM
- GI50 (UO-31 renal): 38.6 nM
- TGI (UO-31 renal): 173 nM
- GI50 (RPMI-8226 leukemia): 3280 nM
- TGI (RPMI-8226 leukemia): > 17500 nM
- GI50 (MCF7 breast): 5370 nM
- TGI (MCF7 breast): > 17500 nM
- GI50 (SK-MEL-28 melanoma): 218 nM
- TGI (SK-MEL-28 melanoma): 995 nM
- GI50 (SK-OV-3 ovarian): 116 nM
- TGI (SK-OV-3 ovarian): > 5400 nM
- GI50 (HCC-2998 colon): 6000 nM
- TGI (HCC-2998 colon): > 17500 nM
- GI50 (MDA-MB-435): 324 nM
- TGI (MDA-MB-435): 6120 nM
- GI50 (A549 NSCLC): 75.4 nM
- TGI (A549 NSCLC): > 17500 nM
- GI50 (NCI-H522 lung): 58.1 nM
- TGI (NCI-H522 lung): 2470 nM
- GI50 (NCI-H226 lung): 98.5 nM
- TGI (NCI-H226 lung): > 17500 nM
- GI50 (OVCAR-3 ovarian): 170 nM
- TGI (OVCAR-3 ovarian): 607 nM
- GI50 (NCI/ADR-RES ovarian): 2950 nM
- TGI (NCI/ADR-RES ovarian): > 17500 nM

Structure (SMILES): CCOC(=O)c1sc2nc(-c3ccccc3)nn2c1CBr
- TGI (HT29 colon): 3770 nM
- TGI (SW-620 colon): 3880 nM
- TGI (EKVX NSCLC): > 10000 nM
- TGI (UACC-257 melanoma): 3920 nM
- TGI (MOLT-4 leukemia): 1180 nM
- TGI (T-47D breast): 5710 nM
- TGI (IGROV1 ovarian): > 10000 nM
- TGI (PC-3 prostate): 4160 nM
- TGI (K-562 leukemia): 1960 nM
- TGI (MALME-3M melanoma): 4940 nM
- TGI (SN12C renal): 3210 nM
- TGI (RXF 393 renal): 4070 nM
- TGI (MDA-MB-231 breast): 3690 nM
- TGI (SF-295 CNS): > 10000 nM
- TGI (SF-268 CNS): 4190 nM
- TGI (CAKI-1 renal): 2830 nM
- TGI (KM12 colon): 4140 nM
- TGI (COLO 205 colon): 3730 nM
- TGI (HL-60(TB) leukemia): 1340 nM
- TGI (HOP-62 NSCLC): > 10000 nM
- TGI (TK-10 renal): 4470 nM
- TGI (SK-MEL-5 melanoma): 3490 nM
- TGI (CCRF-CEM leukemia): 642 nM
- TGI (OVCAR-8 ovarian): 4030 nM
- TGI (SR leukemia): 1510 nM
- TGI (M14 melanoma): 2850 nM
- TGI (SNB-75 CNS): 3690 nM
- TGI (NCI-H23 lung): 3780 nM
- TGI (LOX IMVI melanoma): 3170 nM
- TGI (786-0 renal): 2950 nM
- TGI (DU-145 prostate): > 10000 nM
- TGI (RPMI-8226 leukemia): 4250 nM
- TGI (MCF7 breast): 3780 nM
- TGI (SK-MEL-28 melanoma): 3410 nM
- TGI (SK-OV-3 ovarian): > 10000 nM
- TGI (HCC-2998 colon): > 10000 nM
- TGI (A549 NSCLC): > 10000 nM
